# US20140309309A1, “COSMETIC FORMULATION” (EVONIK INDUSTRIES AG, priority 2011, published 2014)
# Key:
# healthy female subjects [1] = test: Human study, face: echogenicity of the skin (DermaScan C); format: in vivo; conditions: 0.2% by mass in formulation, twice daily
# From the text: (§1) The panel comprises 60 healthy female subjects of Caucasian origin up to 70 years of age who were in their postmenopausal phase (average age 59.4 years). The formulations were applied on the face. Vehicle formulation (vehicle) and N-hexanoyl-phytosphingosine formulation (N-hexanoyl-phytosphingosine) was each applied by 30 subjects. In the case of the non-inventive vehicle formulation, which serves as comparison formulation, the 0.2% by mass of N-hexanoyl-phytosphingosine were replaced by an additional 0.2% by mass of water.
# (§2) Application was carried out twice daily, morning and evening, over a period of twelve weeks. Measurement points were before the start of application (T0), after four weeks (T4), after eight weeks (T8) and after twelve weeks (T12). A period over four weeks is accordingly referred to as T4-T0.
# (§3) The measurements were performed in a temperature- and humidity-controlled room (24±2° C., 50±10 relative humidity). The subjects were requested to apply no product up to twelve hours prior to measurement and to wash their face three hours before measurement.
# The echogenicity of the skin was measured using a DermaScan® C ultrasound scanner. The instrument is based on the physical principle of the ultrasound emission of a transducer. […] Their intensity is detected by a microprocessor. […] The echogenicity was recorded in the B-scan mode and given in %. […]
# healthy female subjects [2] = test: Human study, face: skin roughness (Primos Pico, Sa parameter); format: in vivo; conditions: 0.2% by mass in formulation, twice daily, entire study period of twelve weeks (FIG. 2)
# From the text: as §1
# Application was carried out twice daily, morning and evening, over a period of twelve weeks. Measurement points were before the start of application (T0), after four weeks (T4), after eight weeks (T8) and after twelve weeks (T12). A period over four weeks is accordingly referred to as T4-T0. […]
# The roughness of the skin was determined by means of Primos Pico optical 3D-Sensor (GF Messtechnik GmbH). […] Bands are projected onto the surface of the skin and the projection is recorded under a defined triangulation angle by means of a CCD camera. The topography of the measured object is calculated by the position of the bands and the grey scales of all registered image points. […] The average roughness Sa was determined; this reflects the arithmetic mean of the skin roughness in the recorded image.
# [3] = tested on: differentiated human adipocytes; test: Gene expression in differentiated human adipocytes (Affymetrix GeneChip); format: cell-based; conditions: 2.5 μM, 6 h, vs vehicle-treated adipocytes
# Description: This example investigated the effect of N-hexanoyl-phytosphingosine on the gene expression in differentiated human adipocytes.
# Cells, media and reagents were acquired from PromoCell. The cultivation was carried out in accordance with the protocol from PromoCell. Unless stated otherwise, the cells were cultivated at 37° C. and 5% CO2. Firstly, proliferating subcutaneous primary human white preadipocytes (HWP) from two different donors were cultivated in a special preadipocyte growth medium until complete confluence was reached. The medium was then exchanged for a special differential medium, and the cells were incubated with this medium for 72 hours. The medium was then exchanged for a further medium (Adipocyte Nutrition Medium) in order to conclude the differentiation process. The cells were further incubated with this medium for twelve days, with media exchange being carried out every three days. Ultimately, the medium was removed from the cells and replaced by fresh medium containing N-hexanoyl-phytosphingosine. The vehicle used was methanol, the end concentration of the vehicle in the medium being 0.05% (v/v). End concentration of N-hexanoyl-phytosphingosine in the medium was 2.5 μM. As the control, the cultivation was carried out without active ingredient, only with medium (vehicle). All of the cultivations were performed twice (with cells from two different donors).
# After cultivation for six hours, the medium was removed and the cells were lysed by adding RNeasy Lysis Buffer (Qiagen). Isolation of whole-RNA was carried out in accordance with manufacturer's instructions. Combined, the whole-RNA was isolated by means of RNeasy Mini Kit (Qiagen). The RNA concentration was determined by spectrophotometry using a SmartSpec Plus (Biorad). Purity and integrity of the RNA were determined using Agilent 2100 Bioanalyzer with a 6000 Nano LabChip reagent set (Agilent Technologies, Inc.). RNA samples were stored at −80° C. until further processing.
# Analysis of the gene expression was carried out using Affymetrix HGU133 plus 2.0 GeneChips (Affymetrix), with 2 μg of whole-RNA being used. For this, the RNA of the two different donor cultures was pooled. Expression analyses including standard data evaluation were carried out in accordance with manufacturer's instructions (Affymetrix.).
# healthy female subjects [4] = test: Human study, upper arm: echogenicity of the skin (DermaScan C); format: in vivo; conditions: twice daily
# From the text: The panel consisted of healthy female subjects of Caucasian origin up to 70 years old who were in their postmenopausal phase. The echogenicity of the skin on the upper arms of the subjects was at most 60% (DermaScan® C, B-scan mode). The formulations were applied to the upper arms. Vehicle formulation (vehicle) and formulation with different concentrations of N-hexanoyl-phytosphingosine (N-hexanoyl-phytosphingosine) was applied by in each case 16 subjects. In the non-inventive vehicle formulation, which serves as comparison formulation, the corresponding % by mass of N-hexanoyl-phytosphingosine were replaced by additional % by mass of water.
# as §2
# The measurements were performed in a temperature- and humidity-controlled room (24±2° C., 50±10 relative humidity). The subjects were asked to apply no product up to twelve hours before measurement and to no longer wash their arms from three hours before measurement.
# The skin slackening was measured by measuring the echogenicity of the skin by means of a DermaScan® C ultrasound scanner. The echogenicity was recorded in the B-scan mode and given in %. […]
# healthy female subjects [5] = test: Human study, face: sagging of the skin assessed by a dermatologist (4-point scale); format: in vivo; conditions: 0.2% by mass in formulation with 1,2-pentanediol, twice daily, twelve weeks, all time points, compared with vehicle group (FIG. 1)
# From the text: as §1, §2, §3
# The sagging of the skin was assessed by a dermatologist by means of visual and tactile evaluation by reference to a 4-point scale (0=absent, 1=minimum, 2=moderate, 3=maximum).
# human dermal fibroblasts = test: Gene expression in human dermal fibroblasts (Affymetrix GeneChip); format: cell-based; conditions: 5 μM, 24 h, vs vehicle-treated fibroblasts
# From the text: The present example investigates the effect of N-hexanoyl-phytosphingosine on the gene expression in fibroblasts (normal human dermal fibroblasts, NHDFs).
# For this, firstly primary human dermal fibroblasts (human dermal fibroblasts derived from neonatal skin, HDF), cryopreserved, Lifeline Cell Technology, acquired via CellSystems® Biotechnologie Vertrieb GmbH, in Minimum Essential Medium (MEM) with Earle's salts (EMEM) (PAA Laboratories GmbH) were cultivated with the addition of 10% foetal bovine serum (FBS, Invitrogen Ltd, UK), 1% nonessential amino acids (NEAA) (100×) (PAA Laboratories GmbH), 1% L-glutamine (100×) (Invitrogen Ltd) and 1% penicillin/streptomycin (5000 U/mL penicillin and 5000 μg/mL streptomycin/mL, (Invitrogen Ltd) at 37° C. and 5% CO2. For gene expression studies, the cells were sown out in 6-well plates and cultivated to the point of subconfluence (maximum 60%).
# Then, the medium was removed from the cells and replaced by fresh medium containing N-hexanoyl-phytosphingosine. The vehicle used was methanol, the end concentration of the vehicle in the medium being 0.05% (v/v). The end concentration of N-hexanoyl-phytosphingosine in the medium was 5 μM. As the control, the cultivation was carried out without active ingredient, only with medium (vehicle). All of the cultivations were performed twice (with cells from two different donors).
# After cultivation for 24 hours, the medium was removed and the cells were lysed by adding RNeasy Lysis Buffer (Qiagen). Isolation of whole-RNA was carried out in accordance with manufacturer's instructions. Combined, the whole-RNA was isolated by means of RNeasy Mini Kit (Qiagen). The RNA concentration was determined by spectrophotometry using a SmartSpec Plus (Biorad). Purity and integrity of the RNA were determined using Agilent 2100 Bioanalyzer with a 6000 Nano LabChip reagent set (Agilent Technologies, Inc.). RNA samples were stored at −80° C. until further processing.
# Analysis of the gene expression was carried out using Affymetrix HGU133 plus 2.0 GeneChips (Affymetrix), with 2 μg of whole-RNA being used. For this, the RNA of the two different donor cultures was pooled. Expression analyses including standard data evaluation were carried out in accordance with manufacturer's instructions (AFFYMETRIX, INC.).
# [6] = Percutaneous absorption study on a pig skin model; format: in vitro ADME; conditions: 0.2% in formulation in combination with 1.80% 1,2-pentanediol vs corresponding formulations without 1,2-pentanediol (FIG. 4)
# Description: The increase in the skin penetration of N-hexanoyl-phytosphingosine from a cosmetic formulation as a result of adding 1,2-pentanediol was shown in the course of a percutaneous absorption study on a pig skin model. In practice, the study was performed in accordance with a current protocol, as described for example in S. Richert, A. Schrader, K. Schrader, Int. J. Cosmet. Sci. 2003, 25, 5-13.
smiles,measurement,setting,value
CCCCCCCCCCCCCC[C@@H](O)[C@@H](O)[C@H](CO)NC(=O)CCCCC [N-hexanoyl-phytosphingosine],change in the echogenicity of the skin,healthy female subjects [1]; after four weeks (T4-T0) (FIG. 3),slight decrease in echogenicity
same,change in the echogenicity of the skin,healthy female subjects [1]; as the study progressed (to T12) (FIG. 3),steadily improved
same,change in skin roughness (Sa parameter),healthy female subjects [2],steadily further reduced
same,Regulation of the gene expression by N-hexanoyl-phytosphingosine: ACACA (acetyl-coenzyme A carboxylase alpha),[3],+1.5 fold
same,Regulation of the gene expression by N-hexanoyl-phytosphingosine: ADIPOQ (adiponectin),[3],+2.2 fold
same,"Regulation of the gene expression by N-hexanoyl-phytosphingosine: CEBPB (CAAT/enhancer binding protein (C/EBP), beta)",[3],+2.1 fold
same,Regulation of the gene expression by N-hexanoyl-phytosphingosine: FAS (fatty acid synthase),[3],+1.4 fold
same,Regulation of the gene expression by N-hexanoyl-phytosphingosine: LEP (leptin),[3],+2.7 fold
same,Regulation of the gene expression by N-hexanoyl-phytosphingosine: LEPR (leptin receptor),[3],+4.1 fold
same,Regulation of the gene expression by N-hexanoyl-phytosphingosine: LIPC (lipase),[3],−2.5 fold
same,"Regulation of the gene expression by N-hexanoyl-phytosphingosine: PPARD (peroxisome proliferator activated receptor, delta)",[3],+1.7 fold
same,"Regulation of the gene expression by N-hexanoyl-phytosphingosine: PPARG (peroxisome proliferator activated receptor, gamma)",[3],+2.5 fold
same,Regulation of the gene expression by N-hexanoyl-phytosphingosine: THBS1 (thrombospondin 1),[3],+5.9 fold
same,echogenicity of the skin on the upper arm compared with the starting value,"healthy female subjects [4]; 0.02% in formulation, increase only measurable after a treatment time of eight weeks (FIG. 5)",less marked
same,echogenicity of the skin on the upper arm compared with the starting value,"healthy female subjects [4]; 0.05% in formulation, four, eight and twelve weeks (FIG. 5)",increase in the echogenicity of the skin
same,decrease in sagging of the skin,healthy female subjects [5],more marked
same,Regulation of the gene expression by N-hexanoyl-phytosphingosine: ACAN (aggrecan),human dermal fibroblasts,+1.7 fold
same,"Regulation of the gene expression by N-hexanoyl-phytosphingosine: COL10A1 (collagen, type X, alpha 1)",human dermal fibroblasts,+3.2 fold
same,"Regulation of the gene expression by N-hexanoyl-phytosphingosine: COL11A1 (collagen, type XI, alpha 1)",human dermal fibroblasts,+2.2 fold
same,Regulation of the gene expression by N-hexanoyl-phytosphingosine: FGF18 (fibroblast growth factor 18),human dermal fibroblasts,+2.2 fold
same,Regulation of the gene expression by N-hexanoyl-phytosphingosine: HAPLN1 (hyaluronan and proteoglycan link protein),human dermal fibroblasts,+4.1 fold
same,Regulation of the gene expression by N-hexanoyl-phytosphingosine: IGF1 (insulin-like growth factor 1),human dermal fibroblasts,+2.0 fold
same,Regulation of the gene expression by N-hexanoyl-phytosphingosine: ITGA2 (integrin alpha-2),human dermal fibroblasts,+1.6 fold
same,Regulation of the gene expression by N-hexanoyl-phytosphingosine: LEP (leptin),human dermal fibroblasts,+2.2 fold
same,Regulation of the gene expression by N-hexanoyl-phytosphingosine: MMP3 (matrix metallopeptidase 3),human dermal fibroblasts,−1.4 fold
same,bioavailability (skin penetration) of N-hexanoyl-phytosphingosine from formulation,[6],increase in bioavailability
